In patent US11944622B2 (Annapurna Bio, Inc., priority 2018, dated 2024):

Target: T1, APJ Receptor (Homo sapiens, UniProt P35414)
T1 sequence (P35414 1-380): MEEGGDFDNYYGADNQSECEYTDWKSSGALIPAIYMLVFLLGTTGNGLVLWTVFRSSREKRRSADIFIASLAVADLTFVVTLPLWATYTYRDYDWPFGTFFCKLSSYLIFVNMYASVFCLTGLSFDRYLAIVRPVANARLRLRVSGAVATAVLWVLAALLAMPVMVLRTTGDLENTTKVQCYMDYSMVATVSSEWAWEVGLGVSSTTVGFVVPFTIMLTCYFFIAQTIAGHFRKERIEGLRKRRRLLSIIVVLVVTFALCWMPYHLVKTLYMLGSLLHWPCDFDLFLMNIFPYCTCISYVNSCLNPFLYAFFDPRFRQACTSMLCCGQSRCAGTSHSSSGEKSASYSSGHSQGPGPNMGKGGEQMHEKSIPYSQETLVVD
Assay: APJ cAMP assay (DiscoverX enzyme fragment complementation; inhibition of forskolin-stimulated cAMP)
Format: cell-based
Conditions: CHO-K1 cell line stably expressing the APJ Receptor; EC80 forskolin; 30 minutes at 37° C.; read-out: Potency Range (APJ cAMP EC50)
How it was run: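 CHO-K1 cells stably expressing APJ incubated with compound plus EC80 forskolin for 30 min at 37° C. cAMP detected by β-galactosidase enzyme fragment complementation with chemiluminescent read-out; % activity calculated relative to vehicle and maximal controls.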

`CCOc1cccc(-c2nc3ncc(NS(=O)(=O)C[C@H]4C[C@](C)(O)C4)nc3n2-c2c(OC)cccc2OC)n1` [Example 81, trans-N-(1-(2,6-Dimethoxyphenyl)-2-(6-ethoxypyridin-2-yl)-1H-imidazo[4,5-b]pyrazin-6-yl)-1-((1r,3r)-3-hydroxy-3-methylcyclobutyl)methanesulfonamide] and `CC#CCS(=O)(=O)Nc1cnc2nc(-c3cccc(OCC)n3)n(-c3c(OC)cccc3OC)c2n1` [Example 82, N-(1-(2,6-Dimethoxyphenyl)-2-(6-ethoxypyridin-2-yl)-1H-imidazo[4,5-b]pyrazin-6-yl)but-2-yne-1-sulfonamide] fall in the same range of EC50: 1 to 100 nM for the first, 1 to 100 nM for the second.

`CCOc1cccc(-c2nc3ncc(NS(=O)(=O)Cc4ccc(C)cn4)nc3n2-c2c(OC)cccc2OC)n1` [Example 83, N-(1-(2,6-Dimethoxyphenyl)-2-(6-ethoxypyridin-2-yl)-1H-imidazo[4,5-b]pyrazin-6-yl)-1-(5-methylpyridin-2-yl)methanesulfonamide] and `CCOc1cccc(-c2nc3nc(NS(=O)(=O)Cc4ncc(C)cn4)cnc3n2-c2c(OC)cccc2OC)n1` [Example 91, N-(1-(2,6-Dimethoxyphenyl)-2-(6-ethoxypyridin-2-yl)-1H-imidazo[4,5-b]pyrazin-5-yl)-1-(5-methylpyrimidin-2-yl)methanesulfonamide] cannot be ordered by EC50: less than 1 nM for the first, less than 1 nM for the second.

`CCOc1cccc(-c2nc3nc(CC)c(NS(C)(=O)=O)nc3n2-c2c(OC)cccc2OC)n1` [Example 86, N-(1-(2,6-dimethoxyphenyl)-2-(6-ethoxypyridin-2-yl)-5-ethyl-1H-imidazo[4,5-b]pyrazin-6-yl)methanesulfonamide] and `CCOc1cccc(-c2nc3nc(C)c(NS(C)(=O)=O)nc3n2-c2c(OC)cccc2OC)n1` [Example 87, N-(1-(2,6-Dimethoxyphenyl)-2-(6-ethoxypyridin-2-yl)-5-methyl-1H-imidazo[4,5-b]pyrazin-6-yl)methanesulfonamide] fall in the same range of EC50: 1 to 100 nM for the first, 1 to 100 nM for the second.

First: CCOc1cccc(-c2nc3nc(CC4CCC4)c(NS(C)(=O)=O)nc3n2-c2c(OC)cccc2OC)n1 [Example 88]
Second: CCOc1cccc(-c2nc3nc(OC4CC4)c(NS(C)(=O)=O)nc3n2-c2c(OC)cccc2OC)n1 [Example 89, N-(5-Cyclopropoxy-1-(2,6-dimethoxyphenyl)-2-(6-ethoxypyridin-2-yl)-1H-imidazo[4,5-b]pyrazin-6-yl)methanesulfonamide]
The EC50 of the first is lower: less than 1 nM for the first, 100 to 10000 nM for the second. The first is the more potent here.

Compared with `CCOc1cccc(-c2nc3nc(NS(=O)(=O)N4CCOCC4)cnc3n2-c2c(OC)cccc2OC)n1` [Example 90, N-(1-(2,6-Dimethoxyphenyl)-2-(6-ethoxypyridin-2-yl)-1H-imidazo[4,5-b]pyrazin-5-yl)morpholine-4-sulfonamide], `CCOc1cccc(-c2nc3nc(Cl)c(NS(=O)(=O)N4CCOCC4)nc3n2-c2c(OC)cccc2OC)n1` [Example 98, N-(5-Chloro-1-(2,6-dimethoxyphenyl)-2-(6-ethoxypyridin-2-yl)-1H-imidazo[4,5-b]pyrazin-6-yl)morpholine-4-sulfonamide] is higher in EC50: less than 1 nM for the first, 1 to 100 nM for the second. The first is the more potent here.

`CCOc1cccc(-c2nc3nc(NS(=O)(=O)C4CC4)cnc3n2-c2c(OC)cccc2OC)n1` [Example 92, N-(1-(2,6-Dimethoxyphenyl)-2-(6-ethoxypyridin-2-yl)-1H-imidazo[4,5-b]pyrazin-5-yl)cyclopropanesulfonamide] and `CCOc1cccc(-c2nc3nc(Cl)c(NS(=O)(=O)C4CC4)nc3n2-c2c(OC)cccc2OC)n1` [Example 97, N-(5-Chloro-1-(2,6-dimethoxyphenyl)-2-(6-ethoxypyridin-2-yl)-1H-imidazo[4,5-b]pyrazin-6-yl)cyclopropanesulfonamide] fall in the same range of EC50: 1 to 100 nM for the first, 1 to 100 nM for the second.

First: CCOc1cccc(-c2nc3nc(NS(=O)(=O)CC4(O)CNC4)cnc3n2-c2c(OC)cccc2OC)n1 [Example 93, N-(1-(2,6-Dimethoxyphenyl)-2-(6-ethoxypyridin-2-yl)-1H-imidazo[4,5-b]pyrazin-5-yl)-1-(3-hydroxyazetidin-3-yl)methanesulfonamide]
Second: CCOc1cccc(-c2nc3nc(Cl)c(NS(=O)(=O)Cc4ncccc4F)nc3n2-c2c(OC)cccc2OC)n1 [Example 94, N-(5-Chloro-1-(2,6-dimethoxyphenyl)-2-(6-ethoxypyridin-2-yl)-1H-imidazo[4,5-b]pyrazin-6-yl)-1-(3-fluoropyridin-2-yl)methanesulfonamide]
The EC50 of the first is lower: less than 1 nM for the first, 1 to 100 nM for the second.

`CCOc1cccc(-c2nc3nc(Cl)c(NS(=O)(=O)Cc4ccccn4)nc3n2-c2c(OC)cccc2OC)n1` [Example 95, N-(5-Chloro-1-(2,6-dimethoxyphenyl)-2-(6-ethoxypyridin-2-yl)-1H-imidazo[4,5-b]pyrazin-6-yl)-1-(pyridin-2-yl)methanesulfonamide] and `CCOc1cccc(-c2nc3nc(Cl)c(NS(=O)(=O)c4ccccn4)nc3n2-c2c(OC)cccc2OC)n1` [Example 102, N-(5-Chloro-1-(2,6-dimethoxyphenyl)-2-(6-ethoxypyridin-2-yl)-1H-imidazo[4,5-b]pyrazin-6-yl)pyridine-2-sulfonamide] fall in the same range of EC50: 1 to 100 nM for the first, 1 to 100 nM for the second.

First: CCOc1cccc(-c2nc3nc(Cl)c(NS(=O)(=O)Cc4ccc(F)cn4)nc3n2-c2c(OC)cccc2OC)n1 [Example 96, N-(5-Chloro-1-(2,6-dimethoxyphenyl)-2-(6-ethoxypyridin-2-yl)-1H-imidazo[4,5-b]pyrazin-6-yl)-1-(5-fluoropyridin-2-yl)methanesulfonamide]
Second: CCOc1cccc(-c2nc3nc(Cl)c(NS(=O)(=O)c4ccc(F)cn4)nc3n2-c2c(OC)cccc2OC)n1 [Example 99, N-(5-Chloro-1-(2,6-dimethoxyphenyl)-2-(6-ethoxypyridin-2-yl)-1H-imidazo[4,5-b]pyrazin-6-yl)-5-fluoropyridine-2-sulfonamide]
The EC50 of the first is lower: less than 1 nM for the first, 1 to 100 nM for the second.

First: CCOc1cccc(-c2nc3nc(Cl)c(NS(=O)(=O)Cc4ccc(C)cc4F)nc3n2-c2c(OC)cccc2OC)n1 [Example 100, N-(5-Chloro-1-(2,6-dimethoxyphenyl)-2-(6-ethoxypyridin-2-yl)-1H-imidazo[4,5-b]pyrazin-6-yl)-1-(2-fluoro-4-methylphenyl)methanesulfonamide]
Second: CCOc1cccc(-c2nc3nc(Cl)c(NS(=O)(=O)c4ccc(C)cn4)nc3n2-c2c(OC)cccc2OC)n1 [Example 101, N-(5-Chloro-1-(2,6-dimethoxyphenyl)-2-(6-ethoxypyridin-2-yl)-1H-imidazo[4,5-b]pyrazin-6-yl)-5-methylpyridine-2-sulfonamide]
The EC50 of the first is higher: 1 to 100 nM for the first, less than 1 nM for the second.

Compared with `CCOc1cccc(-c2nc3nc(Cl)c(NS(=O)(=O)c4ccc(CF)cc4)nc3n2-c2c(OC)cccc2OC)n1` [Example 103, N-(5-Chloro-1-(2,6-dimethoxyphenyl)-2-(6-ethoxypyridin-2-yl)-1H-imidazo[4,5-b]pyrazin-6-yl)-4-(fluoromethyl)benzenesulfonamide], `CCOc1cccc(-c2nc3nc(Cl)c(NS(=O)(=O)c4cccnc4)nc3n2-c2c(OC)cccc2OC)n1` [Example 104, N-(5-Chloro-1-(2,6-dimethoxyphenyl)-2-(6-ethoxypyridin-2-yl)-1H-imidazo[4,5-b]pyrazin-6-yl)pyridine-3-sulfonamide] is higher in EC50: less than 1 nM for the first, 1 to 100 nM for the second. The first is the more potent here.

For `CCOc1cccc(-c2nc3nc(Cl)c(NS(=O)(=O)Cc4ncc(F)cn4)nc3n2-c2c(OC)cccc2OC)n1` [Example 105, N-(5-Chloro-1-(2,6-dimethoxyphenyl)-2-(6-ethoxypyridin-2-yl)-1H-imidazo[4,5-b]pyrazin-6-yl)-1-(5-fluoropyrimidin-2-yl)methanesulfonamide], the EC50 was less than 1 nM.
